{"source": "ChEMBL document CHEMBL4340512", "about": "“Discovery of novel triazolo[4,3-b]pyridazin-3-yl-quinoline derivatives as PIM inhibitors” (Eur J Med Chem, 2019)", "key": {"Raji": {"system": "Raji", "test": "Antiproliferative activity against human Raji assessed as combination index at 20 uM incubated for 72 hrs in presence of GI50 dose of Palbociclib by CellTiter-Glo luminescence assay", "assay_type": "functional"}, "BXPC-3": {"system": "BXPC-3", "test": "Antiproliferative activity against human BxPC3 cells incubated for 72 hrs by CellTiter-Glo luminescence assay", "assay_type": "functional", "details": "BXPC-3, 72 h"}, "SK-ES1": {"system": "SK-ES1", "test": "Antiproliferative activity against human SK-ES-1 cells incubated for 72 hrs by CellTiter-Glo luminescence assay", "assay_type": "functional", "details": "SK-ES1, 72 h"}, "PC-3 [1]": {"system": "PC-3", "test": "Antiproliferative activity against human PC3 cells incubated for 72 hrs by CellTiter-Glo luminescence assay", "assay_type": "functional", "details": "PC-3, 72 h"}, "DU-145": {"system": "DU-145", "test": "Antiproliferative activity against human DU145 cells incubated for 72 hrs by CellTiter-Glo luminescence assay", "assay_type": "functional", "details": "DU-145, 72 h"}, "[2]": {"target": "Serine/threonine-protein kinase pim-2 (Homo sapiens, UniProt Q9P1W9)", "sequence (Q9P1W9 whole entry)": "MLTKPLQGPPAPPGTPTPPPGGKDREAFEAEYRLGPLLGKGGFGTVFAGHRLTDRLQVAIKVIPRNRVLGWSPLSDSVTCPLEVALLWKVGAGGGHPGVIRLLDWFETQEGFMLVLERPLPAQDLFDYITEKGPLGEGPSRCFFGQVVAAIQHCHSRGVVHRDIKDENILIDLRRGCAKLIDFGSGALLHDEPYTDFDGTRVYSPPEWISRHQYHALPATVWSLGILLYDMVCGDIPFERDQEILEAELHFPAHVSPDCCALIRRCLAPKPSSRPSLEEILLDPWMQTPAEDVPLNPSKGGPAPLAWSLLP", "test": "Inhibition of His tagged human recombinant PIM2 using PIM tide (ARKRRRHPSGPPTA) as substrate incubated for 1 hr by fluorescence based assay"}, "PANC-1": {"system": "PANC-1", "test": "Antiproliferative activity against human PANC1 cells incubated for 72 hrs by CellTiter-Glo luminescence assay", "assay_type": "functional", "details": "PANC-1, 72 h"}, "JeKo-1 [3]": {"system": "JeKo-1", "test": "Antiproliferative activity against human JeKo1 assessed as combination index at 10 uM incubated for 72 hrs in presence of GI50 dose of Palbociclib by CellTiter-Glo luminescence assay", "assay_type": "functional"}, "MDA-MB-231 [4]": {"system": "MDA-MB-231", "test": "Antiproliferative activity against human MDA-MB-231 assessed as combination index at 20 uM incubated for 72 hrs in presence of GI50 dose of PD-0325901 by CellTiter-Glo luminescence assay", "assay_type": "functional"}, "JeKo-1 [5]": {"system": "JeKo-1", "test": "Antiproliferative activity against human JeKo1 assessed as combination index at 10 uM incubated for 72 hrs in presence of GI50 dose of GDC-0941 by CellTiter-Glo luminescence assay", "assay_type": "functional"}, "A549": {"system": "A549", "test": "Antiproliferative activity against human A549 cells incubated for 72 hrs by CellTiter-Glo luminescence assay", "assay_type": "functional", "details": "A549, 72 h"}, "HCT-116 [6]": {"system": "HCT-116", "test": "Antiproliferative activity against human HCT116 cells incubated for 72 hrs by CellTiter-Glo luminescence assay", "assay_type": "functional", "details": "HCT-116, 72 h"}, "MDA-MB-231 [7]": {"system": "MDA-MB-231", "test": "Antiproliferative activity against human MDA-MB-231 assessed as combination index at 20 uM incubated for 72 hrs in presence of GI50 dose of Palbociclib by CellTiter-Glo luminescence assay", "assay_type": "functional"}, "SK-MEL19 [8]": {"system": "SK-MEL19", "test": "Antiproliferative activity against human SK-MEL-19 assessed as combination index at 5 uM incubated for 72 hrs in presence of GI50 dose of Taxotere by CellTiter-Glo luminescence assay", "assay_type": "functional"}, "ASPC1": {"system": "ASPC1", "test": "Antiproliferative activity against human Aspc-1 cells incubated for 72 hrs by CellTiter-Glo luminescence assay", "assay_type": "functional", "details": "ASPC1, 72 h"}, "U-87 MG": {"system": "U-87 MG", "test": "Antiproliferative activity against human U87MG cells incubated for 72 hrs by CellTiter-Glo luminescence assay", "assay_type": "functional, U-87MG ATCC"}, "PC-3 [9]": {"system": "PC-3", "test": "Antiproliferative activity against human PC3 assessed as combination index at 20 uM incubated for 72 hrs in presence of GI50 dose of GDC-0941 by CellTiter-Glo luminescence assay", "assay_type": "functional"}, "SK-MEL19 [10]": {"system": "SK-MEL19", "test": "Antiproliferative activity against human SK-MEL-19 cells incubated for 72 hrs by CellTiter-Glo luminescence assay", "assay_type": "functional", "details": "SK-MEL19, 72 h"}, "[11]": {"target": "Voltage-gated inwardly rectifying potassium channel KCNH2 (Homo sapiens, UniProt Q12809)", "sequence (Q12809 whole entry)": "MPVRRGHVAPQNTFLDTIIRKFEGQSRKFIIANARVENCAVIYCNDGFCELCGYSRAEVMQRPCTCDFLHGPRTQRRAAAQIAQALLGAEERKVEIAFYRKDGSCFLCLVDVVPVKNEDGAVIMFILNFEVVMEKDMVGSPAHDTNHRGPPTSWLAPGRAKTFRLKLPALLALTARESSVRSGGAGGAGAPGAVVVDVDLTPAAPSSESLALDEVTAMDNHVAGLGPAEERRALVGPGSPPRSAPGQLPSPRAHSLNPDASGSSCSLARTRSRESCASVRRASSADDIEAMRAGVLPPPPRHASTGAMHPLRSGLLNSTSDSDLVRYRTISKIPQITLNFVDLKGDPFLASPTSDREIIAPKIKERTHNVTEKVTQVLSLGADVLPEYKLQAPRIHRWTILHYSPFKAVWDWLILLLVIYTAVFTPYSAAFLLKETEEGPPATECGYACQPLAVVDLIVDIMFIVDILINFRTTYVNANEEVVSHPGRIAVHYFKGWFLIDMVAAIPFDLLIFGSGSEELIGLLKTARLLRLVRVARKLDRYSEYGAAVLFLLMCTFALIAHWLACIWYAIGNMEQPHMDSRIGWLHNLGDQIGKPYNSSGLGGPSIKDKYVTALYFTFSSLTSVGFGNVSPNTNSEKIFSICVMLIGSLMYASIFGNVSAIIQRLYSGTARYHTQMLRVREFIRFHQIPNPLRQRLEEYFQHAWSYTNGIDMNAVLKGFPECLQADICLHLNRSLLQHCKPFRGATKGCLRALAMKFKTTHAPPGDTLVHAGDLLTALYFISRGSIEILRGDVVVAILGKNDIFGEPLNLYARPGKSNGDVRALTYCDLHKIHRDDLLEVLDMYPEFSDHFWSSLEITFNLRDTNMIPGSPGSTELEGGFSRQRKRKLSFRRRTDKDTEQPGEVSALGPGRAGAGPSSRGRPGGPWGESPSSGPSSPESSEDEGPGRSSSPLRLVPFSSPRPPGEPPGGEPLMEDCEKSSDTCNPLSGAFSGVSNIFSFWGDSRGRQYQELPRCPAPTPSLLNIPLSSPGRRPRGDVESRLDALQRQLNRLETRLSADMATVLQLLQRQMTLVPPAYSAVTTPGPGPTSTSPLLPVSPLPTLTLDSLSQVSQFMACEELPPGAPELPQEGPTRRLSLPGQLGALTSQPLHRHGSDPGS"}, "SK-MEL19 [12]": {"system": "SK-MEL19", "test": "Antiproliferative activity against human SK-MEL-19 assessed as combination index at 5 uM incubated for 72 hrs in presence of GI50 dose of GDC-0941 by CellTiter-Glo luminescence assay", "assay_type": "functional"}, "MDA-MB-231 [13]": {"system": "MDA-MB-231", "test": "Antiproliferative activity against human MDA-MB-231 assessed as combination index at 20 uM incubated for 72 hrs in presence of GI50 dose of Lapatinib by CellTiter-Glo luminescence assay", "assay_type": "functional"}, "MIA PaCa-2": {"system": "MIA PaCa-2", "test": "Antiproliferative activity against human MIAPaCa2 assessed as combination index at 20 uM incubated for 72 hrs in presence of GI50 dose of Lapatinib by CellTiter-Glo luminescence assay", "assay_type": "functional"}, "[14]": {"target": "Serine/threonine-protein kinase pim-3 (Homo sapiens, UniProt Q86V86)", "test": "Inhibition of N-terminal 6-His tagged human recombinant PIM3 using PIM tide (ARKRRRHPSGPPTA) as substrate incubated for 1 hr by fluorescence based assay"}, "JeKo-1 [15]": {"system": "JeKo-1", "test": "Antiproliferative activity against human JeKo1 assessed as combination index at 10 uM incubated for 72 hrs in presence of GI50 dose of Lapatinib by CellTiter-Glo luminescence assay", "assay_type": "functional"}, "T84": {"system": "T84", "test": "Antiproliferative activity against human T84 cells incubated for 72 hrs by CellTiter-Glo luminescence assay", "assay_type": "functional", "details": "T84, 72 h"}, "T47D": {"system": "T47D", "test": "Antiproliferative activity against human T47D cells incubated for 72 hrs by CellTiter-Glo luminescence assay", "assay_type": "functional"}, "[16]": {"test": "Antiproliferative activity against human TC71 cells incubated for 72 hrs by CellTiter-Glo luminescence assay", "assay_type": "functional", "details": "TC-71, 72 h"}, "MV4-11 [17]": {"system": "MV4-11", "test": "Antiproliferative activity against human MV4-11 assessed as combination index at 10 uM incubated for 72 hrs in presence of GI50 dose of GDC-0941 by CellTiter-Glo luminescence assay", "assay_type": "functional"}, "SK-OV-3": {"system": "SK-OV-3", "test": "Antiproliferative activity against human SKOV3 cells incubated for 72 hrs by CellTiter-Glo luminescence assay", "assay_type": "functional", "details": "SK-OV-3, 72 h"}, "[18]": {"test": "Antiproliferative activity against human MDA-MB-175 cells incubated for 72 hrs by CellTiter-Glo luminescence assay", "assay_type": "functional"}, "MDA-MB-231 [19]": {"system": "MDA-MB-231", "test": "Antiproliferative activity against human MDA-MB-231 cells incubated for 72 hrs by CellTiter-Glo luminescence assay", "assay_type": "functional", "details": "MDA-MB-231, 72 h"}, "MV4-11 [20]": {"system": "MV4-11", "test": "Antiproliferative activity against human MV4-11 cells incubated for 72 hrs by CellTiter-Glo luminescence assay", "assay_type": "functional", "details": "MV4-11, 72 h"}, "MDA-MB-231 [21]": {"system": "MDA-MB-231", "test": "Antiproliferative activity against human MDA-MB-231 assessed as combination index at 20 uM incubated for 72 hrs in presence of GI50 dose of GDC-0941 by CellTiter-Glo luminescence assay", "assay_type": "functional"}, "CAKI-1": {"system": "CAKI-1", "test": "Antiproliferative activity against human CAKI-1 cells incubated for 72 hrs by CellTiter-Glo luminescence assay", "assay_type": "functional", "details": "CAKI-1, 72 h"}, "PC-3 [22]": {"system": "PC-3", "test": "Antiproliferative activity against human PC3 assessed as combination index at 20 uM incubated for 72 hrs in presence of GI50 dose of Vorinostat by CellTiter-Glo luminescence assay", "assay_type": "functional"}, "HCT-116 [23]": {"system": "HCT-116", "test": "Antiproliferative activity against human HCT116 assessed as combination index at 20 uM incubated for 72 hrs in presence of GI50 dose of Lapatinib by CellTiter-Glo luminescence assay", "assay_type": "functional"}, "SK-BR-3": {"system": "SK-BR-3", "test": "Antiproliferative activity against human SKBR3 cells incubated for 72 hrs by CellTiter-Glo luminescence assay", "assay_type": "functional", "details": "SK-BR-3, 72 h"}, "LNCaP": {"system": "LNCaP", "test": "Antiproliferative activity against human LNCAP cells incubated for 72 hrs by CellTiter-Glo luminescence assay", "assay_type": "functional"}}}
{"smiles": "COCCN1CCOc2c1cnn1c(-c3ccc4cccc(NCC5CCNCC5)c4n3)nnc21", "values": [{"measurement": "CI", "setting": "Raji", "result": 0.52}, {"measurement": "GI50", "setting": "BXPC-3", "result": 9.21, "unit": "µM"}, {"measurement": "GI50", "setting": "SK-ES1", "result": 7.38, "unit": "µM"}, {"measurement": "GI50", "setting": "PC-3 [1]", "result": 17.1, "unit": "µM"}, {"measurement": "GI50", "setting": "DU-145", "result": 22.4, "unit": "µM"}, {"measurement": "IC50", "setting": "[2]", "result": 5.53, "unit": "µM"}, {"measurement": "GI50", "setting": "PANC-1", "result": 25.4, "unit": "µM"}, {"measurement": "CI", "setting": "JeKo-1 [3]", "result": 0.108}, {"measurement": "CI", "setting": "MDA-MB-231 [4]", "result": 0.32}, {"measurement": "CI", "setting": "JeKo-1 [5]", "result": 0.295}, {"measurement": "GI50", "setting": "A549", "result": 16.2, "unit": "µM"}, {"measurement": "GI50", "setting": "HCT-116 [6]", "result": 21.2, "unit": "µM"}, {"measurement": "CI", "setting": "MDA-MB-231 [7]", "result": 0.047}, {"measurement": "CI", "setting": "SK-MEL19 [8]", "result": 0.535}, {"measurement": "GI50", "setting": "ASPC1", "result": 7.25, "unit": "µM"}, {"measurement": "GI50", "setting": "U-87 MG", "result": 21.7, "unit": "µM"}, {"measurement": "CI", "setting": "PC-3 [9]", "result": 0.094}, {"measurement": "GI50", "setting": "SK-MEL19 [10]", "result": 1480, "unit": "nM"}, {"measurement": "IC50", "setting": "[11]", "result": "> 20", "unit": "µM"}, {"measurement": "CI", "setting": "SK-MEL19 [12]", "result": 0.308}, {"measurement": "CI", "setting": "MDA-MB-231 [13]", "result": 0.116}, {"measurement": "CI", "setting": "MIA PaCa-2", "result": 0.069}, {"measurement": "IC50", "setting": "[14]", "result": 70, "unit": "nM"}, {"measurement": "CI", "setting": "JeKo-1 [15]", "result": 0.295}, {"measurement": "GI50", "setting": "T84", "result": 23.2, "unit": "µM"}, {"measurement": "GI50", "setting": "T47D", "result": 10.8, "unit": "µM"}, {"measurement": "GI50", "setting": "[16]", "result": 14.9, "unit": "µM"}, {"measurement": "CI", "setting": "MV4-11 [17]", "result": 0.334}, {"measurement": "GI50", "setting": "SK-OV-3", "result": 23.5, "unit": "µM"}, {"measurement": "GI50", "setting": "[18]", "result": 10.2, "unit": "µM"}, {"measurement": "GI50", "setting": "MDA-MB-231 [19]", "result": 21.2, "unit": "µM"}, {"measurement": "GI50", "setting": "MV4-11 [20]", "result": 6.46, "unit": "µM"}, {"measurement": "CI", "setting": "MDA-MB-231 [21]", "result": 0.0001}, {"measurement": "GI50", "setting": "CAKI-1", "result": 22.1, "unit": "µM"}, {"measurement": "CI", "setting": "PC-3 [22]", "result": 0.346}, {"measurement": "CI", "setting": "HCT-116 [23]", "result": 0.001}, {"measurement": "GI50", "setting": "SK-BR-3", "result": 21, "unit": "µM"}, {"measurement": "GI50", "setting": "LNCaP", "result": 18.6, "unit": "µM"}]}
